The values below come from US20210137903A1, “ANTI-ANDROGENS FOR THE TREATMENT OF PROSTRATE CANCER” (priority 2019, published 2021).

Data set [1] is described as follows: Single 240-mg dose pharmacokinetics in healthy subjects (earlier studies). Type of data set: in vivo, human. The source says:
Apalutamide is a Biopharmaceutics Classification System Class II drug (highly permeable and poorly soluble). The commercialized formulation is a spray dried powder of amorphous apalutamide.

Data set [2] can be described thus: Single-dose 14C-apalutamide absolute bioavailability and microtracer study. To be noted: in vivo. On the set-up: species or system human.
The nature of data set [3]: Example 1 relative bioavailability study: pharmacokinetics, whole tablets vs mixture in applesauce. Type of data set: in vivo, human. The following applies: n=10. The method, then:
This was a randomized, open-label, balanced, single dose, two-treatment, two-period, two-sequence, crossover relative bioavailability study.
Healthy male subjects were randomly assigned to 1 of 2 treatment sequences by following the randomization scheme as given below.
All study drug were taken in the morning on Day 1 of each treatment period. […] For Treatment B, the study drug-applesauce mixture was prepared by a pharmaceutical technician or pharmacist. An additional 50 mL of water for either treatments was allowed if necessary. Study drug of Treatment B was be ingested within 5 minutes. Treatment A was be swallowed whole and not chewed, divided, dissolved, or crushed.
Additional PK parameters could be included if deemed appropriate.
Pharmacokinetic analysis was performed by or under the responsibility of the sponsor.
Pharmacokinetic and statistical analysis were done using Phoenix™ WinNonlin® (Tripos L.P.). Noncompartmental analysis was applied for the pharmacokinetic analysis. Furthermore, Microsoft Excel® (Microsoft, Redmond, Wash., United States), and SAS (SAS Institute Inc., Cary, N.C., US) were used.
If one of the PK parameters could not be determined for a given subject in 1 or more periods, the subject's data was not included in the statistical analysis of that particular PK parameter. The analysis was performed on log-transformed PK parameters.
A mixed effect model that includes treatment, period, and treatment sequence as fixed effects, and subject as a random effect, was used to estimate the least squares means and intrasubject variance. Using these estimated least squares means and intrasubject variance, the point estimate and 90% CIs for the difference in means on a log scale between test and reference were constructed. The limits of the CIs was retransformed using antilogarithms to obtain 90% CIs for the geometric mean ratios of Cmax and AUC0-168 h of the test to reference formulation. A similar analysis was conducted for AUC0-72 h for supplemental purpose.

Data set [4] in a line: Dosing accuracy, chemical stability and appearance of apalutamide tablets dispersed in applesauce (UHPLC). It is filed as physicochemical. The method, then: The tablet core weight was 700 mg. […] Appearance was determined visually. Dosing accuracy and chemical stability (the concentration and impurities) were measured using the following UHPLC Procedure. The reagents used in the UHPLC procedure were demineralized water, ammonium acetate, trifluoroacetic acid and acetonitrile. Mobile Phase A was a 10 mM NH4Ac+01% TFA/Acetonitrile (90/10 v/v) solution prepared as follows. 0.77 g Ammonium acetate (NH4Ac) was transferred into a 1000 mL volumetric flask. […] Mobile Phase B was acetonitrile. Sample solutions were prepared as described in the individual examples which follow hereinafter. [table] For chemical stability (chromatographic characteristics) the identity of impurities were assigned based on comparison of their Relative Retention Times (RRT) to known retention times, or retention times determined using reference solutions. […] The mixture was gently mixed in the container with a spatula for 10 seconds and the time recorded. The hold time of the sample was calculated against the moment the tablets were added to the mixture. After 15 minutes, the mixture was again gently mixed with a spatula for 10 seconds and the time recorded. After an additional 15 minutes, the mixture was again gently mixed with a spatula for until a uniform mixture was formed (at least 10 seconds) and the time recorded. […]

Molecules are shown by their SMILES. Where two headings read alike, the source gives them in different places.

As usually defined, the bioavailability is dose-corrected exposure relative to a reference, in per cent. The Cmax is the maximum level reached in the sampled fluid or tissue. By Tmax is commonly meant the time from dosing to the highest level. Turning to `CNC(=O)c1ccc(N2C(=S)N(c3cnc(C#N)c(C(F)(F)F)c3)C(=O)C23CCC3)cc1F` [apalutamide, 4-[7-(6-cyano-5-trifluoromethylpyridin-3-yl)-8-oxo-6-thioxo-5,7-diazaspiro[3.4]oct-5-yl]-2-fluoro-N-methylbenzamide], in data set [1] (fed vs fasted), the “Cmax lower with a high-fat meal compared to fasted” value was “approximately 16%” and the “extent of absorption based on AUC∞ under fed conditions” value is on record as “remained unchanged”. The bioavailability in data set [1] (human, in vivo, oral, single dose 240 mg, read-out: absolute bioavailability) is about 100%. Moreover, the peak concentration (Cmax) in data set [1] (human, plasma, oral, 240 mg, N=15, read-out: mean single dose plasma Cmax) is about 2400 ng/mL. In data set [1] (human, plasma, oral, 240 mg, human, read-out: half-life (converted)), the half-life is about 7 days. The maximum concentration (Cmax) in data set [1] (human, plasma, oral, 240 mg, read-out: mean Cmax from a similar study) stood at 2420 ng/mL. In addition, in data set [1] (human, plasma, oral, 240 mg, read-out: mean elimination half-life (t1/2) (converted)), the half-life is about 6.75 days. Moreover, the AUC(0-t) in data set [1] (human, plasma, oral, 240 mg, N=15, read-out: AUC0-168 h from another bioavailability study) was 121 µg·h/mL. Besides, the AUC in data set [1] (human, plasma, oral, 240 mg, N=15, read-out: mean AUC28) stood at 225 µg·h/mL. For the same molecule, in data set [1] (human, plasma, oral, single 240-mg dose, tablet, healthy subjects, read-out: median Tmax), the Tmax is 2 to 3 h. Besides, the Fabs in data set [1] (single dose 240 mg) is 1.11. Besides, in data set [2], the “14C-radioactivity excreted via feces (arithmetic mean)” value turned out to be 24.3%, the “total 14C-radioactivity excreted in urine (arithmetic mean)” value is on record as 64.2% and the “total administered 14C-radioactive dose recovered” value amounted to 88.9%. For the same molecule, in data set [3], the “AUC0-72h Intra-subject CV(%)” value was determined as 3.7%, the “AUC0-168h Intra-subject CV(%)” value is 2.7% and the “Cmax Intra-subject CV(%)” value was 13.8%. Also, the “time the drug was found to be stable in applesauce” value in data set [4] is “at least 6 hours”.
